Experimental findings from patent US12655104B2, “Anticancer compounds selective for ER-positive cancers” (THE BOARD OF TRUSTEES OF THE UNIVERSITY OF ILLINOIS, priority 2020, dated 2026) are described below.

The structures appear in SMILES notation. Where two headings read alike, the source gives them in different places. A value given as a limit tells only on which side of the number the result lay.

Assay type in all cases: cell-based
One experiment concerns ERα− cancer cell lines. In words: Selectivity of cell killing, ERα+ versus ERα− cancer cell lines. As to the method:
(§1) Cancer Cell Lines: Culturing Conditions and Validation. All cell lines were cultured at 37° C. with 5% CO2. All ERα-positive cell lines were grown in media lacking phenol red. MCF-7 were grown in EMEM with 10% FBS and 1% penicillin-streptomycin (P/S). T47D were cultured in MEM with 10% FBS and 1% P/S. TYS and TDG cells were grown in MEM supplemented with 10% CD-FBS and 1% P/S. HCT-116 and MDA-MB-231 cells were cultured in RPMI-1640 supplemented with 10% FBS and 1% P/S. MDA-MB-436 cells were cultured in DMEM supplemented with 10% FBS and 1% P/S. HT-29 were cultured in McCoy's media supplemented with 10% FBS and 1% P/S. All cell lines were used directly from ATCC stocks and/or have been further authenticated using PowerPlex16HS Assay (Promega) as described previously.^54 In short, >1 million cells were harvested and lysed using the cell lysis buffer (50 mM Tris, 50 mM EDTA, 25 mM sucrose, 100 mM NaCl, 1% SDS, pH 8). DNA extraction and short tandem repeats (STRs) profiling for each cell line were carried out at the University of Arizona Genetics Core (UAGC). Autosomal STR profiles were compared to reference databases such as ATCC, DSMZ, and JCRB.
(§2) Alamar Blue Fluorescence for Anticancer Activity (IC50). 2,000-15,000 cells per well were seeded a 96-well plate. Cells were allowed to adhere before DMSO stock solutions of test compounds were added to each well with a final concentration of DMSO in each well=1%; final volume: 100 μL. At the end of the desired incubation time (e.g., 24 or 72 hours), media in each well was aspirated and new fresh media (no compound, 100 μL) was added. Alamar blue solution (4 mg resazurin per 40 mL PBS) was then added (10 μL). After 2-6 hours incubation, each well's fluorescence (λexcit.=555 nm, λemission.=585 nm) was measured using a SpectraMax M3 plate reader (Molecular Devices). Percent dead was determined by comparison to a 100% dead control: 100 μM raptinal treated cells. Dose dependent curves and IC50 were calculated using Origin Pro V10.

In another experiment the test system is MCF-7 cells. Put plainly: Alamar blue fluorescence viability (IC50), MCF-7. The conditions noted are these: Homo sapiens. As to the method:
as §1, §2

The next experiment concerns T47D-ERaY537S (TYS). In words: Alamar blue fluorescence viability (IC50), TYS. The conditions noted are these: 24 h, read-out: IC50 24 hr (μM). As to the method: as §1, with “DNA extraction and short tandem repeats (STRs) profiling for each cell line were carried out at the University of Arizona Genetics Core (UAGC). Autosomal STR profiles were compared to reference databases such as ATCC, DSMZ, and JCRB.” left out
(§3) Alamar Blue Fluorescence for Anticancer Activity (IC50). […] After 2-6 hours incubation, each well's fluorescence (λexcit.=555 nm, λemission.=585 nm) was measured using a SpectraMax M3 plate reader (Molecular Devices). Percent dead was determined by comparison to a 100% dead control: 100 μM raptinal treated cells. Dose dependent curves and IC50 were calculated using Origin Pro V10.

For a further experiment, the system named is MDA-MB-436. Put plainly: Alamar blue fluorescence viability (IC50), MDA-MB-436. To be noted: for IC50: Homo sapiens. The protocol:
as §1, §2
(In general: Resazurin is reduced to fluorescent resorufin, in cell work by metabolically active cells.)

The next experiment has as its system T47D. Put plainly: Alamar blue fluorescence viability (IC50), T47D. The conditions noted are these: Homo sapiens, 24 h, read-out: IC50 24 hr (μM). The protocol:
as §1, with “DNA extraction and short tandem repeats (STRs) profiling for each cell line were carried out at the University of Arizona Genetics Core (UAGC). Autosomal STR profiles were compared to reference databases such as ATCC, DSMZ, and JCRB.” left out
as §3

Experiment [1] deals with anticipatory unfolded protein response (a-UPR). Put plainly: a-UPR immunoblotting/western blot in MCF-7 cells. The protocol:
a-UPR Immunoblotting/Western Blot Procedure. 400,000 MCF-7 cells/per well were seeded into 6 or 12 well plates and allowed to adhere overnight. Media was then aspirated from each well and then fresh media with diluted test compound (0.1% DMSO concentration) was added accordingly. Cells were incubated for 4 or 6 hours, then harvested. PBS-washed cell pellets were then lysed using RIPA buffer containing phosphatase (BioVision) and protease inhibitor cocktail (Calbiochem). Protein concentrations were determined using the BCA assay (Pierce). Lysates containing 10-15 μg of protein were loaded onto 4-20% gradient gels (BioRad), and SDS-PAGE was run. Proteins were then transferred onto membrane (PDVF Millipore) and blots blocked with BSA solution (2 g in 40 mL TBST) for one hour. After blocking, primary antibody was added and incubated overnight (using manufacturer's recommended dilutions). Following overnight incubation, blots were washed with TBST (5-minute incubation for each wash, washed 3 times), then incubated with HRP-linked secondary antibody for 1 hour in TBST. Blots were washed (10-minute incubation for each wash for a total of two ten-minute washes). SuperSignal West Pico Solution was then added following manufacturer's procedures and blots imaged with ChemiDoc.
Antibodies. […]
For orientation: Immunoblotting shows a protein as a band on a membrane.

As for `O=C1Nc2c(C(F)(F)F)cccc2[C@@]1(c1ccc(O)cc1)N1CCC(F)(F)CC1` (single isomer, unassigned) [ErSO-DFP], the “average fold difference between IC50 values of ERα+ and ERα− cancer cell lines” value in the experiment with ERα− cancer cell lines (measured at both 24 and 72 hours) is recorded as > 2750 fold. Moreover, the IC50 with ERα− cancer cell lines (read-out: IC50 in ERα− cell lines) is > 25000 nM; in the experiment on MCF-7 cells (MCF7, 24 h, read-out: IC50 24 hr (μM)), 0.017 ± 0.002 µM; in the experiment with MCF-7 cells (MCF7, 72 h, read-out: IC50 72 hr (μM)) it was 0.017 ± 0.001 µM; in the experiment with MCF-7 cells (MCF7, read-out: pIC50 (converted)), 0.017 µM; in the experiment with T47D-ERaY537S (TYS), 0.007 ± 0.001 µM; with MDA-MB-436 (MDA-MB-436, 24 h, read-out: IC50 24 hr (μM)), 64 ± 3 µM. Also, the IC50 is 55 ± 9 µM in the experiment on MDA-MB-436 (MDA-MB-436, 72 h, read-out: IC50 72 hr (μM)) and 0.016 ± 0.002 µM in the experiment with T47D. In the experiment with MDA-MB-436 (Average Fold Change between 24/72 hr IC50 values for MCF-7 and MDA-MB-436), the “Fold Change” value is given as 3235. In addition, the “a-UPR activation (P-AMPK, P-EIF2α, cleavage of ATF6α p90), western blot” value in experiment [1] is “activates the a-UPR in a time- and concentration-dependent manner”.
